“And” between values parts separate entries of the source, which are not always exact repeats. Equal values may be shown once. Read-outs that look alike come from different tables or passages of the source.
Columns and labels:
[1] = system: human pancreatic tumor xenograft Panc-1; conditions: for No. of CR / No. of LTTES / No. of PR: 6 mice; for Median TTE: endpoint 1200 mg; for Efficacy Score = 10*(TWd1−TWdn)/TWd1: best score 10; for No. of NTR / No. of TR: mouse, in vivo, po;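 on all read-outs here: Panc-1 fragments grown subcutaneously in athymic nude mice, one oral dose given on Day 1, six mice per group, tumor endpoint 1200 mm^3, control is Group 1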
Procedure: The tumor used for this study was maintained in athymic nude mice. A tumor fragment (1 mm^3) was implanted s.c. into the right flank of each test mouse. Tumors were monitored twice weekly and then daily as their volume approached 200-400 mm^3 with a mean of 250-300 mm^3. On Day 1 of the study, the animals were sorted into treatment groups with tumor sizes of 171.5-320.0 mm^3 and group mean tumor sizes of 212.6-216.0 mm^3. Tumor size, in mm^3, was calculated from the following formula:
[formula] where w=width and l=length in mm of the tumor. Tumor weight was estimated with the assumption that 1 mg is equivalent to 1 mm^3 of tumor volume. […] All treatments were administered orally, once on Day 1 (qd×1). […] In all groups, the dosing volume of 0.6 mL/20 g mouse was scaled to the body weight of each animal. Each animal was euthanized when its neoplasm reached the predetermined endpoint size (1200 mm^3). The time to endpoint (TTE) for each mouse was calculated by the following equation:
[formula] where TTE is expressed in days, endpoint volume is in mm^3, b is the intercept, and m is the slope of the line obtained by linear regression of a log-transformed tumor growth data set. The data set is comprised of the first observation that exceeded the study endpoint volume and the three consecutive observations that immediately preceded the attainment of the endpoint volume. […] Animals classified as TR (treatment-related) deaths or NTRM (non-treatment-related metastasis) deaths are assigned a TTE value equal to the day of death. Animals classified as NTR (non-treatment-related) deaths are excluded from TTE calculations. Treatment efficacy was determined from tumor growth delay (TGD), which is defined as the increase in the median TTE for a treatment group compared to the control group: TGD=T−C, expressed in days, or as a percentage of the median TTE of the control group:
[formula] where: • T=median TTE for a treatment group and • C=median TTE for control Group 1.
Treatment may cause partial regression (PR) or complete regression (CR) of the tumor in an animal. In a PR response, the tumor volume is 50% or less of its Day 1 volume for three consecutive measurements during the course of the study, and equal to or greater than 13.5 mm^3 for one or more of these three measurements. In a CR response, the tumor volume is less than 13.5 mm^3 for three consecutive measurements during the course of the study. An animal with a CR response at the termination of a study is additionally classified as a long-term tumor-free survivor (LTTFS).
With respect to toxicity, the animals were weighed daily on Days 1-5, then twice weekly until the completion of the study. The mice were examined frequently for overt signs of any adverse, drug-related side effects. Acceptable toxicity for the maximum tolerated dose (MTD) of a cancer drug in mice is defined by the NCl as a group mean body-weight (BW) loss of less than 20% during the test, and not more than one toxic death among ten treated animals. The log rank test was employed to analyze the significance of the difference between the TTE values of a drug-treated group and the vehicle-treated control group. The log rank test analyzes the data for all animals except the NTR deaths. The two-tailed statistical analyses were conducted at P=0.05. The group median tumor growth curves show the median tumor volume (MTV) as a function of time. When an animal exited the study due to tumor size or TR death, the final tumor volume recorded for the animal was included with the data used to calculate the median volume at subsequent time points.

[2] = system: Sprague-Dawley rats; test: In vivo toxicity assessment in rats, oral; set-up: species or system rat; key to Neu Tox score: N (0); −10: Y (1-4); key to PTL R (Recovery) score / L/W Dia score / B/M Dia score / BW R (Recovery) score / WBC R (Recovery) score: −5: N; 0: Y; conditions: for Total Score AVE: average of 3 rats; for Total Score: per rat, maximum 130; for ALT score / AST score / B/M Dia score / BW score / L/W Dia score / Neu Tox score / WBC R (Recovery) score / WBC score / BUN score / BW R (Recovery) score / PTL R (Recovery) score / PTL score: score per rat
Procedure: Toxicity was assessed in 250-300g Sprague-Dawley rats and three rats were used per dose group. Three dose groups of the test compound, (i.e., 3 mg/kg, 9 mg/kg and 12 mg/kg for intravenous administration; 15 mg/kg, 30 mg/kg and 40 mg/kg) and 1 control group constituted a study. Animals were observed and clinical chemistry data collected at days 4 and 10. Rats were euthanized on day 11 and the nerves were excised and fixed upon euthanization for further examination.
Each rat is scored as described below and a final toxicity score that incorporates all parameters is assigned. A dead rat is assigned a score of zero. Most of the parameters contribute a positive value towards a total possible score of 130. For body weight, white blood cell, and platelet decreases, recovery is considered. […] The total score is divided by 13 to put it on a scale from 0 to 10.

[3] = Panc-1, Group 2: 120 mg/kg po qd × 1
[4] = Panc-1, Group 2: 120 mg/kg po qd × 1, 120 mg/kg
[5] = Panc-1, Group 3: 60 mg/kg po qd × 1
[6] = Panc-1, Group 3: 60 mg/kg po qd × 1, 60 mg/kg
[7] = oral, High Dose 40 mg/kg, 40 mg/kg
[8] = oral, Low Dose 15 mg/kg, 15 mg/kg
[9] = oral, Mid Dose 30 mg/kg, 30 mg/kg

## CC(=O)OC12COC1CC(O)C1(C)C(=O)C(OC(=O)C3CCCC3)C3=C(C)C(OC(=O)C(O)C(NC(=O)OC(C)C)c4cccs4)CC(O)(C(OC(=O)c4ccccc4)C21)C3(C)C (centres unmarked) [Compound 9091]
[1]; [3]
  T − C: 40.1 days
  No. of CR: 3
  No. of LTTES: 3
  No. of PR: 3
  Median TTE: 59.0 days
[1]; [4]
  % TGD: 212%
  Tumor Burden Median(n), Day 59 (MTV): 56 mm^3 and 56 (6) mm^3
[1]; [5]
  T − C: 40.1 days
  No. of CR: 1
  No. of LTTES: 1
  No. of PR: 5
  Median TTE: 59.0 days
[1]; [6]
  % TGD: 212%
  Tumor Burden Median(n), Day 59 (MTV): 148 mm^3 and 148 (6) mm^3
[1]; Panc-1, at both the 120 and 60 mg/kg dose, po qd × 1
  survival: 100%
[1]; Panc-1, at both the 120 and 60 mg/kg dose, po qd × 1, 6 mice per group
  regression responses: six
[1]; Panc-1, single dose oral 60 mg/kg
  Efficacy Score = 10*(TWd1−TWdn)/TWd1: 8.3
[1]; Panc-1, single dose oral 120 mg/kg
  Efficacy Score = 10*(TWd1−TWdn)/TWd1: 9.1
[1]; 60 mg/kg
  No. of NTR: 0
  No. of TR: 0
[1]; 120 mg/kg
  No. of NTR: 0
  No. of TR: 0
[2]; Oral, dose 15 mg, scale 0 to 10
  Tox Score, Dose 15 mg: 7.4
[2]; Oral, dose 30 mg, scale 0 to 10
  Tox Score, Dose 30 mg: 6.7
[2]; Oral, dose 40 mg, scale 0 to 10
  Tox Score, Dose 40 mg: 4.6
[2]; Oral, average of 3 dose groups
  Tox Score, Average: 6.2
[2]; Oral, weighted by dose
  Tox Score, Weighted Avg: 5.8
[2]; PO, summary score, scale 0 to 10
  Rat tox score PO: 6
[2]; oral
  toxicity profile in the oral rat studies compared with congener: better toxicity profile
[2]; oral, High Dose 40 mg/kg
  Total Score AVE: 60
  ALT score: 20 (<1.25Xcont)
  AST score: 20 (<1.25Xcont)
  B/M Dia score: 0
  BW score: 0 (≧20%)
  L/W Dia score: 0
  Neu Tox score: −10
  WBC R (Recovery) score: 0
  WBC score: 0 (≧50%)
[2]; [7]
  Total Score: 55 and 65 and 60
  BUN score: 10 (≧1.25Xcont) and 20 (<1.25Xcont) (2×)
  BW R (Recovery) score: 0 and −5 (2×)
  PTL R (Recovery) score: −5 and 0 (2×)
  PTL score: 20 (<25%) (2×) and 5 (≧50%)
[2]; oral, High Dose 40 mg/kg, scale 0 to 10
  Group score = average of 3 rats/13: 4.62
[2]; oral, Low Dose 15 mg/kg
  Total Score AVE: 96.7
  ALT score: 20 (<1.25Xcont)
  AST score: 20 (<1.25Xcont)
  B/M Dia score: 5
  BUN score: 20 (<1.25Xcont)
  BW R (Recovery) score: 0
  L/W Dia score: 0
  Neu Tox score: −10
  PTL R (Recovery) score: 0
  WBC R (Recovery) score: 0
[2]; [8]
  Total Score: 110 and 85 and 95
  BW score: 20 (<10%) (2×) and 10 (≧10%)
  PTL score: 20 (<25%) (2×) and 10 (≧25%)
  WBC score: 5 (≧25%) and 0 (≧50%) (2×)
[2]; oral, Low Dose 15 mg/kg, scale 0 to 10
  Group score = average of 3 rats/13: 7.44
[2]; oral, Mid Dose 30 mg/kg
  Total Score AVE: 86.7
  ALT score: 20 (<1.25Xcont)
  AST score: 20 (<1.25Xcont)
  B/M Dia score: 0
  BUN score: 20 (<1.25Xcont)
  BW R (Recovery) score: 0
  L/W Dia score: 0
  Neu Tox score: −10
  PTL R (Recovery) score: 0
  PTL score: 20 (<25%)
  WBC R (Recovery) score: 0
[2]; [9]
  Total Score: 85 and 95 and 80
  BW score: 5 (≧15%) and 10 (≧10%) (2×)
  WBC score: 0 (≧50%) (2×) and 5 (≧25%)
[2]; oral, Mid Dose 30 mg/kg, scale 0 to 10
  Group score = average of 3 rats/13: 6.67
